Measurements taken from PMC9884808, “Pharmacokinetics, tissue distribution, and antitumor activity of a novel compound, NY-2, in non-small cell lung cancer” (Frontiers in Pharmacology, 2023).
Like-named read-outs stand apart in the source and are kept apart here. Marks after values point to notes of the source that are not given here.

Assays:
HCT116 = test: MTT cell viability assay; format: cell-based, human; parameters: key to IC50 HCT116: -: poor activity, cannot be unified; conditions: for IC50 HCT116: HCT116 colorectal cancer cells; for IC50: Homo sapiens, HCT-116, HCT116 colorectal cancer cells
Procedure: (§1) The human colorectal cancer cell lines, HCT116 and LoVo, the breast cancer cell line, T47D, the hepatocellular carcinoma cell line, HepG2, the normal human liver cell line, HL7702, human umbilical vein endothelial cells (HUVECs), and the non-small cell lung cancer cell lines, A549, H1993, HCC827, H460, were purchased from the American Type Culture Collection (Manassas, VA, United States). Cell lines were cultured in the recommended RPMI-1640 medium (AE24464298, Hyclone, United States) and DMEM medium (AE29422278, Hyclone, United States) supplemented with 10% fetal bovine serum (FBS; JC63470, FB15015, Clark, United States) with 1% penicillin-streptomycin. Cells were maintained in an incubator at 37°C with 5% CO2 (HF90,Sanyo, Japan) and passaged every 48–72 h, after detaching with 0.25% trypsin (Sigma, United States). The compounds ZLDI-8 and NY-1 to -15 were synthesized in the laboratory of Dr. Huaiwei Ding in Shenyang Pharmaceutical University, and verified by high-performance liquid chromatography (purity >95%) for use in experiments (Supplementary Figure S1). Paclitaxel was purchased from MedChemExpress (HY-B0015, 99.97% purity, United States).
(§2) Cell viability was measured by the MTT assay. HCT116, HL7702, A549, H1993, HCC827, and H460 cells were dispensed into 96-well plates at a density of 1 × 10^5 cells/mL. After 24–48 h incubation, cells were treated with the compounds at different concentrations for the indicated periods. An assay kit (WLA073, Wanlei Co., Liaoning, China), was used according to the manufacturer’s instructions to measure LDH activity, The absorbance at 450 nm was measured with a microplate reader (Elx-800, Bio-Rad, China).
(§3) The preliminary antitumor activity of the series of ZLDI-8 derivatives, NY-1 to -15 was screened by the MTT cell viability assay. […] The antitumor activity of NY-2 on HCT116 cells was concentration- and time-dependent, and slightly better than that of the original compound, ZLDI-8.

LoVo = test: MTT cell viability assay; format: cell-based, human; parameters: key to IC50 LoVo: -: poor activity, cannot be unified; conditions: LoVo colorectal cancer cells; for IC50: Homo sapiens
Procedure: as §1, §2, §3

T47D = test: MTT cell viability assay; format: cell-based, human; parameters: key to IC50 T47D: -: poor activity, cannot be unified; conditions: T47D breast cancer cells; for IC50: Homo sapiens
Procedure: as §1, §2, §3

HepG2 = test: MTT cell viability assay; format: cell-based, human; parameters: key to IC50 HepG2: -: poor activity, cannot be unified; conditions: HepG2 hepatocellular carcinoma cells; for IC50: Homo sapiens
Procedure: as §1, §2, §3

A549 cells = conditions: 28 days, NY-2 6 mg/kg, paclitaxel 1 mg/kg; for Lung metastasis of nude mice, number of mice (%): six mice per group, model 5 mice (83.3%)
Procedure: The experimental groups included the normal (no tumor cells, vehicle) group, the model (tumor cells, vehicle) group, NY-2-treated, and paclitaxel-treated groups, with six mice in each group. After 7 days for adaptation, 200 µL of A549 cells (2× 10^6 cells/mice) in serum-free medium were injected into the tail vein except for those in the normal group. Drug or vehicle administration via tail vein was started on the next day. The normal group and model group were given the same amount of sterile water containing 1% DMSO and 1% Tween as vehicle control. […] Injections were done every other day. The general conditions of the nude mice, with regard to activity and food ingestion, were observed every day, and their body weight was measured every other day.
KM mice were treated with ZLDI-8 or NY-2 by tail vein injection (6 mg/kg) for 7 days, then the mice were euthanized and liver and kidney tissues were removed and sectioned. For the experiment with BALB/c nude mice, the tail vein injections of NY-2 (6 mg/kg) were continued for 28 days, and the lungs, tumor, heart, liver, and kidney were removed. […] Sections for staining were dewaxed with xylene and then rehydrated, and hematoxylin-eosin staining was performed, after which the sections were again dehydrated in ethanol and cleared with xylene before being mounted on a slide, cover-slipped and examined microscopically. The remainder of the tumors and tissues was frozen in liquid nitrogen for other studies.

Cc1ccc(OCCn2c(C)c(C=C3C(=O)NC(=O)NC3=O)c3ccccc32)c(C)c1 [NY-1]
IC50 HCT116 (HCT116): -
IC50 LoVo (LoVo): -
IC50 T47D (T47D): -
IC50 (HepG2): 26.2 µM

Cc1c(C=C2C(=O)NC(=O)NC2=O)c2ccccc2n1CCOc1ccc(F)cc1 [NY-3]
IC50 (HCT116): 43.7 µM
IC50 (LoVo): 21.4 µM
IC50 T47D (T47D): -
IC50 HepG2 (HepG2): -

Cc1c(C=C2C(=O)NC(=S)NC2=O)c2ccccc2n1CCOc1cccc(F)c1 [NY-4]
IC50 (HCT116): 27.5 µM
IC50 (LoVo): 41.8 µM
IC50 (T47D): 25.4 µM
IC50 HepG2 (HepG2): -

Cc1c(C=C2C(=O)NC(=O)NC2=O)c2ccccc2n1CCOc1cccc(F)c1 [NY-5]
IC50 (HCT116): 11.4 µM
IC50 (LoVo): 23.5 µM
IC50 (T47D): 34 µM
IC50 (HepG2): 37.2 µM

O=C1NC(=O)C(=Cc2cn(CCOc3cccc(F)c3)c3ccccc23)C(=O)N1 [NY-6]
IC50 (HCT116): 38.8 µM
IC50 (LoVo): 28.7 µM
IC50 (T47D): 53.7 µM
IC50 (HepG2): 40.8 µM

Cc1c(C=C2C(=O)NC(=S)NC2=O)c2ccccc2n1CCOc1cccc(C(F)(F)F)c1 [NY-7]
IC50 (HCT116): 12.5 µM
IC50 (LoVo): 20.6 µM
IC50 (T47D): 21.8 µM
IC50 (HepG2): 77.4 µM

Cc1c(C=C2C(=O)NC(=O)NC2=O)c2ccccc2n1CCOc1cccc(C(F)(F)F)c1 [NY-8]
IC50 HCT116 (HCT116): -
IC50 (LoVo): 38.1 µM
IC50 (T47D): 10.3 µM
IC50 HepG2 (HepG2): -

O=C1NC(=O)C(=Cc2cn(CCOc3cccc(C(F)(F)F)c3)c3ccccc23)C(=O)N1 [NY-9]
IC50 (HCT116): 35.3 µM
IC50 LoVo (LoVo): -
IC50 T47D (T47D): -
IC50 (HepG2): 85.2 µM

Cc1c(C=C2C(=O)NC(=S)NC2=O)c2ccccc2n1CCOc1ccc(Cl)cc1Cl [NY-10]
IC50 (HCT116): 26 µM
IC50 (LoVo): 86.4 µM
IC50 (T47D): 23.3 µM
IC50 (HepG2): 66.7 µM

Cc1c(C=C2C(=O)NC(=O)NC2=O)c2ccccc2n1CCOc1ccc(Cl)cc1Cl [NY-11]
IC50 HCT116 (HCT116): -
IC50 (LoVo): 23.2 µM
IC50 (T47D): 16.6 µM
IC50 (HepG2): 90.1 µM

O=C1NC(=O)C(=Cc2cn(CCOc3ccc(Cl)cc3Cl)c3ccccc23)C(=O)N1 [NY-12]
IC50 (HCT116): 20 µM
IC50 LoVo (LoVo): -
IC50 (T47D): 40.4 µM
IC50 HepG2 (HepG2): -

Cc1c(C=C2C(=O)NC(=S)NC2=O)c2ccccc2n1CCOc1cccc2ccccc12 [NY-13]
IC50 (HCT116): 12.8 µM
IC50 (LoVo): 43.2 µM
IC50 (T47D): 5.15 µM
IC50 (HepG2): 33.1 µM

Cc1c(C=C2C(=O)NC(=O)NC2=O)c2ccccc2n1CCOc1cccc2ccccc12 [NY-14]
IC50 HCT116 (HCT116): -
IC50 LoVo (LoVo): -
IC50 (T47D): 74.3 µM
IC50 HepG2 (HepG2): -

O=C1NC(=O)C(=Cc2cn(CCOc3cccc4ccccc34)c3ccccc23)C(=O)N1 [NY-15]
IC50 (HCT116): 11.3 µM
IC50 (LoVo): 124 µM
IC50 (T47D): 21.4 µM
IC50 (HepG2): 13.5 µM

CC(=O)O[C@H]1C(=O)[C@@]2(C)[C@H]([C@H](OC(=O)c3ccccc3)[C@]3(O)C[C@H](OC(=O)[C@H](O)[C@@H](NC(=O)c4ccccc4)c4ccccc4)C(C)=C1C3(C)C)[C@]1(OC(C)=O)CO[C@@H]1C[C@@H]2O [Paclitaxel, reference compound]
Body weight before dissection (A549 cells; nude mice with A549 lung metastasis, tail vein every other day, n=6, mean ± SEM): 22.72 ± 0.32 g
Kidney as a proportion of body weight (A549 cells; nude mice, n=6, mean ± SEM): 1.74 ± 0.03 10^-2
Liver as a proportion of body weight (A549 cells; nude mice, n=6, mean ± SEM): 5.45 ± 0.20# 10^-2
Lung as a proportion of body weight (A549 cells; nude mice, n=6, mean ± SEM): 0.64 ± 0.02 10^-2
Quality of the heart (A549 cells; nude mice, n=6, mean ± SEM): 0.14 ± 0.01 g
Quality of the kidney (A549 cells; nude mice, n=6, mean ± SEM): 0.41 ± 0.01 g
Quality of the liver (A549 cells; nude mice, n=6, mean ± SEM): 1.29 ± 0.06 g
Quality of the lung (A549 cells; nude mice, n=6, mean ± SEM): 0.15 ± 0.01 g
infiltration of A549 cells in the lung tissue (H&E) (A549 cells; nude mice): no infiltration of A549 cells in the lung tissue
Lung metastasis of nude mice, number of mice (%) (A549 cells): 0 (0)
Lung metastasis of nude mice, number of mice (%) (A549 cells; listed as paclitaxel): No metastatic tumors were found
